Results as given in patent US11168086B2, “Methods of synthesizing pyrazine compounds” (Hoffmann-La Roche Inc., priority 2015, dated 2021).

System: HBV
Test: HBV inhibition assay: anti-HBV activity in vitro in HepG2.2.15 cells (extracellular HBV DNA by qPCR)
Assay type: cell-based
Settings: five days after compound treatment, extracellular HBV DNA in culture supernatant by qPCR, concentration at which HBV replication is inhibited by 50%
Method in brief: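 HepG2.2.15 cells (stably carrying HBV genome) treated with half-log serially diluted compounds at 0.5% DMSO final for five days. Extracellular HBV DNA in supernatant quantified by qPCR after Proteinase K digestion; EC50 is concentration giving 50% inhibition of replication.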

Row | Structure (SMILES) | EC50 (Hepatitis B virus, 120 h) | EC50
1 | C[C@H]1Cn2ncc(N3CC4(CCC4)CC3=O)c2CN1C(=O)Nc1cc(F)c(F)c(F)c1 [Example 421, (6S)-6-methyl-3-(7-oxo-6-azaspiro[3.4]octan-6-yl)-N-(3,4,5-trifluorophenyl)-6,7-dihydro-4H-pyrazolo[1,5-a]pyrazine-5-carboxamide] | 14 nM | 
2 | C[C@H]1Cn2ncc(N3CC(Nc4ncc(F)cn4)CC3=O)c2CN1C(=O)Nc1cc(F)c(F)c(F)c1 (stereo partly drawn) [Example 414, (6S)-3-[4-[(5-fluoropyrimidin-2-yl)amino]-2-oxo-pyrrolidin-1-yl]-6-methyl-N-(3,4,5-trifluorophenyl)-6,7-dihydro-4H-pyrazolo[1,5-a]pyrazine-5-carboxamide] | 17 nM | 
3 | C[C@@H]1CN(C(=O)C2CC(=O)N(c3cnn4c3CN(C(=O)Nc3cc(F)c(F)c(F)c3)[C@@H](C)C4)C2)CCO1 (stereo partly drawn) [Example 394, (6S)-6-methyl-3-[4-[(2R)-2-methylmorpholine-4-carbonyl]-2-oxo-pyrrolidin-1-yl]-N-(3,4,5-trifluorophenyl)-6,7-dihydro-4H-pyrazolo[1,5-a]pyrazine-5-carboxamide] | 65 nM | 
4 | CC1Cn2ncc(-c3ccc(F)cn3)c2CN1C(=O)Nc1cc(F)c(F)c(Cl)c1 (stereo not drawn) [Example 158, N-(3-chloro-4,5-difluoro-phenyl)-3-(5-fluoro-2-pyridyl)-6-methyl-6,7-dihydro-4H-pyrazolo[1,5-a]pyrazine-5-carboxamide] | 44 nM | 
5 | CC1Cn2ncc(C3CCCC3)c2CN1C(=O)Nc1cc(F)c(F)c(F)c1 (stereo not drawn) [Example 204, 3-cyclopentyl-6-methyl-N-(3,4,5-trifluorophenyl)-6,7-dihydro-4H-pyrazolo[1,5-a]pyrazine-5-carboxamide] | 36 nM | 
6 | C[C@H]1Cn2ncc(N3CC(c4ccncc4)OC3=O)c2CN1C(=O)Nc1cc(F)c(F)c(F)c1 (stereo partly drawn) [Example 346, (6S)-6-methyl-3-[2-oxo-5-(4-pyridyl)oxazolidin-3-yl]-N-(3,4,5-trifluorophenyl)-6,7-dihydro-4H-pyrazolo[1,5-a]pyrazine-5-carboxamide] | 12 nM | 
7 | C[C@@H]1[C@@H](Oc2ncccn2)[C@H](O)C(=O)N1c1cnn2c1CN(C(=O)Nc1cc(F)c(F)c(F)c1)[C@@H](C)C2 [Example 436, (6S)-3-[(2R,3R,4S)-4-hydroxy-2-methyl-5-oxo-3-pyrimidin-2-yloxy-pyrrolidin-1-yl]-6-methyl-N-(3,4,5-trifluorophenyl)-6,7-dihydro-4H-pyrazolo[1,5-a]pyrazine-5-carboxamide] | 16 nM | 
8 | Cc1nc(C2CC(=O)N(c3cnn4c3CN(C(=O)Nc3cc(F)c(F)c(F)c3)[C@@H](C)C4)C2)co1 (stereo partly drawn) [Example 350, (6S)-6-methyl-3-[4-(2-methyloxazol-4-yl)-2-oxo-pyrrolidin-1-yl]-N-(3,4,5-trifluorophenyl)-6,7-dihydro-4H-pyrazolo[1,5-a]pyrazine-5-carboxamide] | 15 nM | 
9 | C[C@H]1[C@H](C)n2ncc(N3CCCC3=O)c2CN1C(=O)Nc1cc(F)c(F)c(F)c1 [Example 251, (6S,7S)-6,7-dimethyl-3-(2-oxopyrrolidin-1-yl)-N-(3,4,5-trifluorophenyl)-6,7-dihydro-4H-pyrazolo[1,5-a]pyrazine-5-carboxamide] | 45 nM | 
10 | C#Cc1cc(NC(=O)N2CCn3ncc(-c4ccc(F)cc4F)c3C2)ccc1F [Example 139, 3-(2,4-difluorophenyl)-N-(3-ethynyl-4-fluoro-phenyl)-6,7-dihydro-4H-pyrazolo[1,5-a]pyrazine-5-carboxamide] | 46 nM | 
11 | C[C@H]1Cn2ncc(N3CC(C(F)(F)F)CC3=O)c2CN1C(=O)Nc1ccc(F)c(Cl)c1 (stereo partly drawn) [Example 255, (6S)—N-(3-chloro-4-fluoro-phenyl)-6-methyl-3-[2-oxo-4-(trifluoromethyl)pyrrolidin-1-yl]-6,7-dihydro-4H-pyrazolo[1,5-a]pyrazine-5-carboxamide] | 28 nM | 
12 | C[C@H]1Cn2ncc(N3CC(c4ccc(Cl)nc4)OC3=O)c2CN1C(=O)Nc1cc(F)c(F)c(F)c1 (stereo partly drawn) [Example 409, (6S)-3-[5-(6-chloro-3-pyridyl)-2-oxo-oxazolidin-3-yl]-6-methyl-N-(3,4,5-trifluorophenyl)-6,7-dihydro-4H-pyrazolo[1,5-a]pyrazine-5-carboxamide] | 16 nM | 
13 | CC1CCC(=O)N(c2cnn3c2CN(C(=O)Nc2cc(F)c(F)c(F)c2)[C@@H](C)C3)C1 (stereo partly drawn) [Example 358, (6S)-6-methyl-3-(5-methyl-2-oxo-1-piperidyl)-N-(3,4,5-trifluorophenyl)-6,7-dihydro-4H-pyrazolo[1,5-a]pyrazine-5-carboxamide] | 43 nM | 
14 | O=C(Nc1ccc(F)c(Cl)c1)N1CCn2ncc(-c3ccc(F)cc3F)c2C1 [Example 50, N-(3-chloro-4-fluoro-phenyl)-3-(2,4-difluorophenyl)-6,7-dihydro-4H-pyrazolo[1,5-a]pyrazine-5-carboxamide] | 36 nM | 
15 | C[C@H]1Cn2ncc(N3C[C@H](Oc4ncccn4)CC3=O)c2CN1C(=O)Nc1cc(F)c(F)c(F)c1 [Example 415, (6S)-6-methyl-3-[(4R)-2-oxo-4-pyrimidin-2-yloxy-pyrrolidin-1-yl]-N-(3,4,5-trifluorophenyl)-6,7-dihydro-4H-pyrazolo[1,5-a]pyrazine-5-carboxamide] | 25 nM | 
16 | C[C@H]1Cn2ncc(N3CC(C#N)CC3=O)c2CN1C(=O)Nc1ccc(F)c(Cl)c1 (stereo partly drawn) [Example 229, (6S)—N-(3-chloro-4-fluoro-phenyl)-3-(4-cyano-2-oxo-pyrrolidin-1-yl)-6-methyl-6,7-dihydro-4H-pyrazolo[1,5-a]pyrazine-5-carboxamide] | 47 nM | 
17 | C[C@H]1Cn2ncc(N3C[C@@H](Oc4ncccn4)CC3=O)c2CN1C(=O)Nc1cc(F)c(F)c(F)c1 [Example 381, (6S)-6-methyl-3-[(4S)-2-oxo-4-pyrimidin-2-yloxy-pyrrolidin-1-yl]-N-(3,4,5-trifluorophenyl)-6,7-dihydro-4H-pyrazolo[1,5-a]pyrazine-5-carboxamide] | 5 nM | 
18 | C[C@H]1Cn2ncc(N3CC(Nc4ncncc4F)CC3=O)c2CN1C(=O)Nc1cc(F)c(F)c(F)c1 (stereo partly drawn) [Example 270, (6S)-3-[4-[(5-fluoropyrimidin-4-yl)amino]-2-oxo-pyrrolidin-1-yl]-6-methyl-N-(3,4,5-trifluorophenyl)-6,7-dihydro-4H-pyrazolo[1,5-a]pyrazine-5-carboxamide] | 17 nM | 
19 | CO[C@@H]1CC(=O)N(c2cnn3c2CN(C(=O)Nc2cc(F)c(F)c(F)c2)[C@@H](C)C3)C1 [Example 379, (6S)-3-[(4R)-4-methoxy-2-oxo-pyrrolidin-1-yl]-6-methyl-N-(3,4,5-trifluorophenyl)-6,7-dihydro-4H-pyrazolo[1,5-a]pyrazine-5-carboxamide] | 38 nM | 
20 | O=C(Nc1ccc(F)c(Cl)c1)N1CCn2ncc(-c3ccc(F)cc3)c2C1 [Example 21, N-(3-chloro-4-fluoro-phenyl)-3-(4-fluorophenyl)-6,7-dihydro-4H-pyrazolo[1,5-a]pyrazine-5-carboxamide] | 76 nM | 
21 | CC1Cn2ncc(-c3ccc(F)cn3)c2CN1C(=O)Nc1cc(F)c(F)c(F)c1 (stereo not drawn) [Example 99, 3-(5-fluoro-2-pyridyl)-6-methyl-N-(3,4,5-trifluorophenyl)-6,7-dihydro-4H-pyrazolo[1,5-a]pyrazine-5-carboxamide] | 24 nM | 
22 | CC1C(C#N)CC(=O)N1c1cnn2c1CN(C(=O)Nc1cc(F)c(F)c(F)c1)[C@@H](C)C2 (single isomer, unassigned) [Example 420-2] |  | 30 nM
23 | C[C@H]1Cn2ncc(N3CCOCC3=O)c2CN1C(=O)Nc1cc(F)c(F)c(C(F)F)c1 [Example 271, (6S)—N-[3-(difluoromethyl)-4,5-difluoro-phenyl]-6-methyl-3-(3-oxomorpholin-4-yl)-6,7-dihydro-4H-pyrazolo[1,5-a]pyrazine-5-carboxamide] | 38 nM | 
24 | C[C@H]1Cn2ncc(N3CC(c4ccccn4)OC3=O)c2CN1C(=O)Nc1cc(F)c(F)c(F)c1 (stereo partly drawn) [Example 345, (6S)-6-methyl-3-[2-oxo-5-(2-pyridyl)oxazolidin-3-yl]-N-(3,4,5-trifluorophenyl)-6,7-dihydro-4H-pyrazolo[1,5-a]pyrazine-5-carboxamide] | 17 nM | 
25 | COCC1CC(=O)N(c2cnn3c2CN(C(=O)Nc2ccc(F)c(Cl)c2)[C@@H](C)C3)C1 (stereo partly drawn) [Example 295, (6S)—N-(3-chloro-4-fluoro-phenyl)-3-[4-(methoxymethyl)-2-oxo-pyrrolidin-1-yl]-6-methyl-6,7-dihydro-4H-pyrazolo[1,5-a]pyrazine-5-carboxamide] | 33 nM | 
26 | C[C@H]1Cn2ncc(N3CCCC3=O)c2CN1C(=O)Nc1ccc(F)c(Cl)c1 [Example 355, (6S)—N-(3-chloro-4-fluoro-phenyl)-6-methyl-3-(2-oxopyrrolidin-1-yl)-6,7-dihydro-4H-pyrazolo[1,5-a]pyrazine-5-carboxamide] | 36 nM | 
27 | C[C@H]1Cn2ncc(N3CC4(CC4)CC3=O)c2CN1C(=O)Nc1cc(F)c(F)c(F)c1 [Example 252, (6S)-6-methyl-3-(6-oxo-5-azaspiro[2.4]heptan-5-yl)-N-(3,4,5-trifluorophenyl)-6,7-dihydro-4H-pyrazolo[1,5-a]pyrazine-5-carboxamide] | 15 nM | 
28 | C[C@H]1Cn2ncc(N3CC(c4cocn4)CC3=O)c2CN1C(=O)Nc1cc(F)c(F)c(F)c1 (stereo partly drawn) [Example 352, (6S)-6-methyl-3-(4-oxazol-4-yl-2-oxo-pyrrolidin-1-yl)-N-(3,4,5-trifluorophenyl)-6,7-dihydro-4H-pyrazolo[1,5-a]pyrazine-5-carboxamide] | 14 nM | 
29 | O=C(Nc1ccc(F)c(Cl)c1)N1CCn2cnc(-c3ccc(F)cc3F)c2C1 [Example 135, N-(3-chloro-4-fluoro-phenyl)-1-(2,4-difluorophenyl)-6,8-dihydro-5H-imidazo[1,5-a]pyrazine-7-carboxamide] | 23 nM | 
30 | C[C@H]1Cn2ncc(N3CC(C(=O)N4CCOCC4)CC3=O)c2CN1C(=O)Nc1cc(F)c(F)c(F)c1 (stereo partly drawn) [Example 386, (6S)-6-methyl-3-[4-(morpholine-4-carbonyl)-2-oxo-pyrrolidin-1-yl]-N-(3,4,5-trifluorophenyl)-6,7-dihydro-4H-pyrazolo[1,5-a]pyrazine-5-carboxamide] | 88 nM | 
